Source: the kinase profiling compilation of Christmann-Franck et al. (2016)
Values joined by “and” are separate entries in the source; they are usually repeats but may differ in a detail not shown here. Identical values can stand only once.

What was measured:
Experiment in all cases: KINOMEscan competition binding
Details in all cases: compound 10.0 µM
CAMK1G (human) = CAMK1G (human) (UniProt Q96NX5)
CAMK2G (human) = CAMK2G (human) (UniProt Q13555)
CDK3 (human) = CDK3 (human) (UniProt Q00526)
CDKL1 (human) = CDKL1 (human) (UniProt Q00532)
CHEK1 (human) = CHEK1 (human) (UniProt O14757)
CIT (human) = CIT (human) (UniProt O14578)
CPK1 (P.falciparum) = tested on: CPK1 (P.falciparum)
CSNK1D (human) = CSNK1D (human) (UniProt P48730)
EPHB3 (human) = EPHB3 (human) (UniProt P54753)
Sequence of EPHB3 (human) (P54753 whole entry, looked up): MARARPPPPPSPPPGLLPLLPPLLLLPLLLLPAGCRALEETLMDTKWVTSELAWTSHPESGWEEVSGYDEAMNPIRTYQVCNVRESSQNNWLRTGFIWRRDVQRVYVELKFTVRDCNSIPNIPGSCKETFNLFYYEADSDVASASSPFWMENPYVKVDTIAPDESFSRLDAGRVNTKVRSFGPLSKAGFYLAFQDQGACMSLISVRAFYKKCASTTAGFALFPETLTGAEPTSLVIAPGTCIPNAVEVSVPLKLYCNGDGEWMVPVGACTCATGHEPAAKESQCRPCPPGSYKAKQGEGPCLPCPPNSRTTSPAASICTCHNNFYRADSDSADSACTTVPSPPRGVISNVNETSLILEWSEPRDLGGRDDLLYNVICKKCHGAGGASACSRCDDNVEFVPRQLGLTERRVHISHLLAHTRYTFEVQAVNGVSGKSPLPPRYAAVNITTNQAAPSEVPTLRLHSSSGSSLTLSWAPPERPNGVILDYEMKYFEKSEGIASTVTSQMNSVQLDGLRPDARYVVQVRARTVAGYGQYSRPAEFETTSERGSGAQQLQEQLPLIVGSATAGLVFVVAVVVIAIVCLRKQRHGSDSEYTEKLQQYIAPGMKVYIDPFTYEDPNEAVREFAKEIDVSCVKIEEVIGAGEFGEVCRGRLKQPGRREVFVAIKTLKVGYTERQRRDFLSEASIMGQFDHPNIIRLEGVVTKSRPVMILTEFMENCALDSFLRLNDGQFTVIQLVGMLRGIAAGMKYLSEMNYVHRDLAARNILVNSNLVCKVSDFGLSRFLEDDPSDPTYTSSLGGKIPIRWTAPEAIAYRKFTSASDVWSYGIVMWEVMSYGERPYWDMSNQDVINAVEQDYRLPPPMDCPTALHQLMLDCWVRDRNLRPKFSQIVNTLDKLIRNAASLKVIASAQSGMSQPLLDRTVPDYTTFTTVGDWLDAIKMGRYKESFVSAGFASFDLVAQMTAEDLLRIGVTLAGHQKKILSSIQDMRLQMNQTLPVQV

FLT4 (human) = FLT4 (human) (UniProt P35916)
GSK3A (human) = GSK3A (human) (UniProt P49840)
HCK (human) = HCK (human) (UniProt P08631)
HIPK4 (human) = HIPK4 (human) (UniProt Q8NE63)
IRAK1 (human) = IRAK1 (human) (UniProt P51617)
[1] = tested on: KIT (human), P10721 [D816H]
LATS2 (human) = LATS2 (human) (UniProt Q9NRM7)
LIMK1 (human) = LIMK1 (human) (UniProt P53667)
LYN (human) = LYN (human) (UniProt P07948)
Sequence of LYN (human) (P07948 whole entry, looked up): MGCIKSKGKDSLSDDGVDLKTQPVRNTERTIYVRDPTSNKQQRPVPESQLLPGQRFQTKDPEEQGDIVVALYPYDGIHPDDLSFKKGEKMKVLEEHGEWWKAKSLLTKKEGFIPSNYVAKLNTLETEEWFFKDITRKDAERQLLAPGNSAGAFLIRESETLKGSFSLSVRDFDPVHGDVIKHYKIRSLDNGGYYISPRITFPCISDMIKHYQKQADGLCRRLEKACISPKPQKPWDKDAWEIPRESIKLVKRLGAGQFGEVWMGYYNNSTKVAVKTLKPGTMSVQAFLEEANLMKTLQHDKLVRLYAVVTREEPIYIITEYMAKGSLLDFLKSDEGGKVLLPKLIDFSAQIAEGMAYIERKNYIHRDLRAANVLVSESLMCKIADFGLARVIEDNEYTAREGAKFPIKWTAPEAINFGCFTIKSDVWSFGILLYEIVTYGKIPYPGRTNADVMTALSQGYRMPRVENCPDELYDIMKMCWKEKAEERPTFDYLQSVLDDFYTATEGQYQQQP

MAP3K5 (human) = MAP3K5 (human) (UniProt Q99683)
MAP3K6 (human) = MAP3K6 (human) (UniProt O95382)
Sequence of MAP3K6 (human) (O95382 whole entry, looked up): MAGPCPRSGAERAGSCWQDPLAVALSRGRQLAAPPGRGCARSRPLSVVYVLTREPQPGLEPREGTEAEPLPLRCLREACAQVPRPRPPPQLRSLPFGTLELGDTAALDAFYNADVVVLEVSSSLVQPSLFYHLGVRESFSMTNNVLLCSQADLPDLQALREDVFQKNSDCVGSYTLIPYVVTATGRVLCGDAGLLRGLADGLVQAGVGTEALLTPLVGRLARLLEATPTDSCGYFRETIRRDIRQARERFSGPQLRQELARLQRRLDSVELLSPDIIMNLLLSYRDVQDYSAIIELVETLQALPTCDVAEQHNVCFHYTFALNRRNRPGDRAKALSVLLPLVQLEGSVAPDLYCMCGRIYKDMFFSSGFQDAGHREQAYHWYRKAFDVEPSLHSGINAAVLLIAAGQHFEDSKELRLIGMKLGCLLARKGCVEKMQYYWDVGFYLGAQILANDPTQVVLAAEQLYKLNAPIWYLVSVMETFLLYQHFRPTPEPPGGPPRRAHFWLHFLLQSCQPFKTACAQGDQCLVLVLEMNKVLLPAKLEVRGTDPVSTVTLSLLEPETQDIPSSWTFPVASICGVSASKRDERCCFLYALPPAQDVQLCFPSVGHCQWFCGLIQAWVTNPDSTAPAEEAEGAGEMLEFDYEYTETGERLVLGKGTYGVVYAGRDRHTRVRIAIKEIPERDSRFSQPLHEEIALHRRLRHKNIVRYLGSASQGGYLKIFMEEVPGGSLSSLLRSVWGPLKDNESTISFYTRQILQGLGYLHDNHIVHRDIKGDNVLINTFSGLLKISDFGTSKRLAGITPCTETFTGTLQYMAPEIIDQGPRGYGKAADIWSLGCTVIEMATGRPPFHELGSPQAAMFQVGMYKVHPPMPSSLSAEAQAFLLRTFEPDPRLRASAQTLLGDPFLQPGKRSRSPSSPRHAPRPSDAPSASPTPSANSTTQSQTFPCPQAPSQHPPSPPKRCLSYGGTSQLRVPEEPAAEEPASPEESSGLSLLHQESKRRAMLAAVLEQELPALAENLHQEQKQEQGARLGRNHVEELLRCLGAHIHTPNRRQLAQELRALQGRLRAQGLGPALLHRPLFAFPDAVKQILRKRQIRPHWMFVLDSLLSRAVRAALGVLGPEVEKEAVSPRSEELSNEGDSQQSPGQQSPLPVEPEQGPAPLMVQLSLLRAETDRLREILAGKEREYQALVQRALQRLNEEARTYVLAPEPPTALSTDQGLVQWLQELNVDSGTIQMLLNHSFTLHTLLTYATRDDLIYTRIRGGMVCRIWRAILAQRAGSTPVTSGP

MAPK7 (human) = MAPK7 (human) (UniProt Q13164)
MET (human) = MET (human) (UniProt P08581)
[2] = tested on: MET (human), P08581 [M1250T]
MKNK2 (human) = MKNK2 (human) (UniProt Q9HBH9)
MYLK (human) = MYLK (human) (UniProt Q15746)
MYLK2 (human) = MYLK2 (human) (UniProt Q9H1R3)
PDGFRA (human) = PDGFRA (human) (UniProt P16234)
PKMYT1 (human) = PKMYT1 (human) (UniProt Q99640)
PKN2 (human) = PKN2 (human) (UniProt Q16513)
PLK1 (human) = PLK1 (human) (UniProt P53350)
PLK3 (human) = PLK3 (human) (UniProt Q9H4B4)
Sequence of PLK3 (human) (Q9H4B4 whole entry, looked up): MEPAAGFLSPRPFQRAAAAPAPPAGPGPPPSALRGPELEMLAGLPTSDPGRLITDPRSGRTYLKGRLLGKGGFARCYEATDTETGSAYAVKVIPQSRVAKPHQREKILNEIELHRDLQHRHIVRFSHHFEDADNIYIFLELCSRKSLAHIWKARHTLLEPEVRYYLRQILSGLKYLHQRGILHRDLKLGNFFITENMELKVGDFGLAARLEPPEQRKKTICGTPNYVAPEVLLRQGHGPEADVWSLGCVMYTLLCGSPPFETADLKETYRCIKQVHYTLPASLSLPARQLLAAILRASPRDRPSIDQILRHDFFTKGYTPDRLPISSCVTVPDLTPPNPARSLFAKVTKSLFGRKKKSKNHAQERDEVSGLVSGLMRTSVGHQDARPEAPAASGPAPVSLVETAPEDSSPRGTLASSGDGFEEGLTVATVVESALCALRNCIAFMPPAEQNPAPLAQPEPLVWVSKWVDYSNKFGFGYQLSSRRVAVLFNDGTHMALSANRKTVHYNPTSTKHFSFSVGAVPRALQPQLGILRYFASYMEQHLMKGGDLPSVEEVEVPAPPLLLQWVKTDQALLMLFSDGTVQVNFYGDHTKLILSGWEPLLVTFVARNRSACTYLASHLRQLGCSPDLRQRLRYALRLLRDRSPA

PRKCI (human) = PRKCI (human) (UniProt P41743)
PRKG2 (human) = PRKG2 (human) (UniProt Q13237)
RET (human) = RET (human) (UniProt P07949)
ROS1 (human) = ROS1 (human) (UniProt P08922)
RPS6KA5 KD2 (human) = RPS6KA5 KD2 (human) (UniProt O75582)
SGK3 (human) = SGK3 (human) (UniProt Q96BR1)
Sequence of SGK3 (human) (Q96BR1 whole entry, looked up): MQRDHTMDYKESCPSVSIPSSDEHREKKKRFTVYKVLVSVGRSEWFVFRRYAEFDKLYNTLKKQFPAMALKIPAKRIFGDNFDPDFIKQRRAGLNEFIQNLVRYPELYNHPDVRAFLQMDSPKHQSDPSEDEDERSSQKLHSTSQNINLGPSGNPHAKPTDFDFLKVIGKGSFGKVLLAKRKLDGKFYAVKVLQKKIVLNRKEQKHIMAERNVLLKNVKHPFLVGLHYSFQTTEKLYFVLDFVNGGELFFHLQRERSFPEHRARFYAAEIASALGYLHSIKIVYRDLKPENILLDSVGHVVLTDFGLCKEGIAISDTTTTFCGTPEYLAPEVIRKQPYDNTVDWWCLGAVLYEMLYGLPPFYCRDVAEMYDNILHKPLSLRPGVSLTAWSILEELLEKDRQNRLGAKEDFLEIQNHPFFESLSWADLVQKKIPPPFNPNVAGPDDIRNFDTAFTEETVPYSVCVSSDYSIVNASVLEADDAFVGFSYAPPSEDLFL

SNRK (human) = SNRK (human) (UniProt Q9NRH2)
Sequence of SNRK (human) (Q9NRH2 whole entry, looked up): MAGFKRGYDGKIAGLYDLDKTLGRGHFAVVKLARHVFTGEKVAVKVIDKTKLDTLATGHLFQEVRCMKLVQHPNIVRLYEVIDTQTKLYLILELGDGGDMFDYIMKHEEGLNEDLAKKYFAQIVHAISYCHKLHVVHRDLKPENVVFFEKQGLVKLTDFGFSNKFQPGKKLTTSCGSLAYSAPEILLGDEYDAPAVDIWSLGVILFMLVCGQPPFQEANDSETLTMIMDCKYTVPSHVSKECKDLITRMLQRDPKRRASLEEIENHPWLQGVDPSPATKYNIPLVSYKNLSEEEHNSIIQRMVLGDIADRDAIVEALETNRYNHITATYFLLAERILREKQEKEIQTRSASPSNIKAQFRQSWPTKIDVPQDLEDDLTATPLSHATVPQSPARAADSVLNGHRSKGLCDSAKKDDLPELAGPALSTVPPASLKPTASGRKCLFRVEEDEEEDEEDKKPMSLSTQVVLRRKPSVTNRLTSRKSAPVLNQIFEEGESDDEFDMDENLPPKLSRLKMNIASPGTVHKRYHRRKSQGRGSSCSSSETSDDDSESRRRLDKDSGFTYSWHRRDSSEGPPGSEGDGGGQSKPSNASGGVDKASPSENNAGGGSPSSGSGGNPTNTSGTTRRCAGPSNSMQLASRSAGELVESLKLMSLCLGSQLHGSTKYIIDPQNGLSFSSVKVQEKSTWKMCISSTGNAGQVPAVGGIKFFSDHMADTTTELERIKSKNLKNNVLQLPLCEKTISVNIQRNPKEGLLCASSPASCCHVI

STK32A (human) = STK32A (human) (UniProt Q8WU08)
STK32B (human) = STK32B (human) (UniProt Q9NY57)
ULK3 (human) = ULK3 (human) (UniProt Q6PHR2)

Sequence of CDK3 (human) (Q00526 whole entry, looked up): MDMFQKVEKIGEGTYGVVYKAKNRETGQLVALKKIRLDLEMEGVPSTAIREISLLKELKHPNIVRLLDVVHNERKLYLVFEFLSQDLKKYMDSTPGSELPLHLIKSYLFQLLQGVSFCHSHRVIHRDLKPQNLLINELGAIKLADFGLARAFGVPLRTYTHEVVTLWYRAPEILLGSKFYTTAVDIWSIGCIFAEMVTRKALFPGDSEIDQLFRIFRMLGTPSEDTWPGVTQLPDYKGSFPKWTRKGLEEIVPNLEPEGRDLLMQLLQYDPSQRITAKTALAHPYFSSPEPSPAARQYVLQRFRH

With `COc1cc2ncnc(Nc3cccc(Cl)c3)c2cc1OC` the kinase still bound, per cent of control (CAMK1G (human)) was 64%, the kinase still bound, per cent of control (CAMK2G (human)) was 77% and the kinase still bound, per cent of control (CDK3 (human)) was 100%. For the same compound, the kinase still bound, per cent of control (CDKL1 (human)) was 90%, the kinase still bound, per cent of control (CHEK1 (human)) was 100% and the kinase still bound, per cent of control (CIT (human)) was 7.4%. The kinase still bound, per cent of control (CPK1 (P.falciparum)) was 34%, the kinase still bound, per cent of control (CSNK1D (human)) was 54% and the kinase still bound, per cent of control (EPHB3 (human)) was 97%. It also gave a kinase still bound, per cent of control (FLT4 (human)) of 79%, a kinase still bound, per cent of control (GSK3A (human)) of 84% and a kinase still bound, per cent of control (HCK (human)) of 6.8%. The kinase still bound, per cent of control (HIPK4 (human)) was 6.1%, the kinase still bound, per cent of control (IRAK1 (human)) was 5.6% and the kinase still bound, per cent of control [1] was 59%. The kinase still bound, per cent of control (LATS2 (human)) was 40%, the kinase still bound, per cent of control (LIMK1 (human)) was 100% and the kinase still bound, per cent of control (LYN (human)) was 11%. For the same compound, the kinase still bound, per cent of control (MAP3K5 (human)) was 74%, the kinase still bound, per cent of control (MAP3K6 (human)) was 43% and the kinase still bound, per cent of control (MAPK7 (human)) was 100%. It also gave a kinase still bound, per cent of control (MET (human)) of 62%, a kinase still bound, per cent of control [2] of 94% and a kinase still bound, per cent of control (MKNK2 (human)) of 3.9%. For the same compound, the kinase still bound, per cent of control (MYLK (human)) was 18%, the kinase still bound, per cent of control (MYLK2 (human)) was 40% and the kinase still bound, per cent of control (PDGFRA (human)) was 29%. The kinase still bound, per cent of control (PKMYT1 (human)) was 78%, the kinase still bound, per cent of control (PKN2 (human)) was 59% and the kinase still bound, per cent of control (PLK1 (human)) was 92%. It also gave a kinase still bound, per cent of control (PLK3 (human)) of 85%, a kinase still bound, per cent of control (PRKCI (human)) of 80% and a kinase still bound, per cent of control (PRKG2 (human)) of 82%. The kinase still bound, per cent of control (RET (human)) was 7%, the kinase still bound, per cent of control (ROS1 (human)) was 61% and the kinase still bound, per cent of control (RPS6KA5 KD2 (human)) was 67%. The kinase still bound, per cent of control (SGK3 (human)) was 65% and 84%, the kinase still bound, per cent of control (SNRK (human)) was 71% and the kinase still bound, per cent of control (STK32A (human)) was 63%. The kinase still bound, per cent of control (STK32B (human)) was 100% and the kinase still bound, per cent of control (ULK3 (human)) was 24%.
In the case of `CCc1nc(-c2cccc(C)c2)c(-c2ccnc(NC(=O)c3ccccc3)c2)s1`, the kinase still bound, per cent of control (CAMK1G (human)) is reported as 97%, the kinase still bound, per cent of control (CAMK2G (human)) is reported as 100% and the kinase still bound, per cent of control (CDK3 (human)) is reported as 100%. It also gave a kinase still bound, per cent of control (CDKL1 (human)) of 100%, a kinase still bound, per cent of control (CHEK1 (human)) of 77% and a kinase still bound, per cent of control (CIT (human)) of 0.45%. For the same compound, the kinase still bound, per cent of control (CPK1 (P.falciparum)) was 22%, the kinase still bound, per cent of control (CSNK1D (human)) was 2% and the kinase still bound, per cent of control (EPHB3 (human)) was 81%. It also gave a kinase still bound, per cent of control (FLT4 (human)) of 27%, a kinase still bound, per cent of control (GSK3A (human)) of 100% and a kinase still bound, per cent of control (HCK (human)) of 31%. It also gave a kinase still bound, per cent of control (HIPK4 (human)) of 97%, a kinase still bound, per cent of control (IRAK1 (human)) of 99% and a kinase still bound, per cent of control [1] of 57%. The kinase still bound, per cent of control (LATS2 (human)) was 90%, the kinase still bound, per cent of control (LIMK1 (human)) was 90% and the kinase still bound, per cent of control (LYN (human)) was 54%. For the same compound, the kinase still bound, per cent of control (MAP3K5 (human)) was 100%, the kinase still bound, per cent of control (MAP3K6 (human)) was 100% and the kinase still bound, per cent of control (MAPK7 (human)) was 98%. It also gave a kinase still bound, per cent of control (MET (human)) of 94%, a kinase still bound, per cent of control [2] of 100% and a kinase still bound, per cent of control (MKNK2 (human)) of 94%. For the same compound, the kinase still bound, per cent of control (MYLK (human)) was 84%, the kinase still bound, per cent of control (MYLK2 (human)) was 96% and the kinase still bound, per cent of control (PDGFRA (human)) was 84%. For the same compound, the kinase still bound, per cent of control (PKMYT1 (human)) was 64%, the kinase still bound, per cent of control (PKN2 (human)) was 76% and the kinase still bound, per cent of control (PLK1 (human)) was 100%. It also gave a kinase still bound, per cent of control (PLK3 (human)) of 98%, a kinase still bound, per cent of control (PRKCI (human)) of 100% and a kinase still bound, per cent of control (PRKG2 (human)) of 100%. The kinase still bound, per cent of control (RET (human)) was 66%, the kinase still bound, per cent of control (ROS1 (human)) was 69% and the kinase still bound, per cent of control (RPS6KA5 KD2 (human)) was 100%. It also gave a kinase still bound, per cent of control (SGK3 (human)) of 100%, a kinase still bound, per cent of control (SNRK (human)) of 100% and a kinase still bound, per cent of control (STK32A (human)) of 9%. The kinase still bound, per cent of control (STK32B (human)) was 7% and the kinase still bound, per cent of control (ULK3 (human)) was 88%.
